Reference: patent US20260256728A1, “TREATMENT FOR ASYMPTOMATIC STARGARDT DISEASE PATIENTS” (priority 2024, published 2026)
“Also recorded” adds a separate entry of the source.

Experiments:
[1] = in vivo
[2] = tested on: asymptomatic Stargardt disease patients; test: TEASE-3 best-corrected visual acuity (BCVA); format: in vivo, human
Protocol: (§1) The tolerability and effects of ALK-001 (gildeuretinol acetate) in Stargardt Disease (Clinical trial group 3, also known as TEASE-3) study was an open-label, multicenter, case control study designed to evaluate the efficacy and safety of gildeuretinol acetate on the progression of Stargardt disease in asymptomatic individuals. The trial was conducted at multiple sites in the United States.
(§2) To assess the safety and efficacy of gildeuretinol acetate in preventing vision loss in asymptomatic individuals, gildeuretinol acetate 14 mg capsules were administered to individuals showing early signs of retinal damage while maintaining approximately 20/20 vision and no subjective loss of vision. […] Based on the above family history and clinical observations, the asymptomatic individuals were likely to develop retinal lesions, loss of photoreceptors, drops in retinal sensitivity, loss of visual acuity, indicating the onset of symptoms, i.e. a progression to the symptomatic phase, including vision loss within two years, mirroring the progression observed in their older siblings.
Testing asymptomatic individuals in the absence of a potential intervention is, therefore, controversial. All asymptomatic Stargardt disease patients were thus administered gildeuretinol acetate. Specific dose levels were not disclosed to the patients. Disease progression was compared to the symptomatic siblings with identical genetic mutations when aged-matched who had not received gildeuretinol acetate.
(§3) Patients received gildeuretinol acetate 14 mg capsules, to be taken orally once daily. Trial visits occurred every 6 months approximately following screening and treatment start visits.
(§4) Disease progression was monitored by best-corrected visual acuity (BCVA) reported in number of Early Treatment Diabetic Retinopathy Study (ETDRS) letters, fundus autofluorescence (FAF) imaging, loss of photoreceptors (as measured by the ellipsoid zone band loss) by optical coherence tomography (OCT) and retinal sensitivity by microperimetry.
Measurements from the left and right eye for each patient were averaged for each visit to produce a single statistical unit for both eyes. For segmented linear regressions, knot times were selected so that three visits were included in the first segment.

[3] = TEASE-3 plasma gildeuretinol; format: in vivo, human; conditions: 14 mg daily
Protocol: as §1, §2, §3

[4] = TEASE-1 plasma gildeuretinol (replacement of plasma vitamin A); format: in vivo, human; conditions: for percentage of gildeuretinol over total vitamin A (as retinol+gildeuretinol): plasma, 8-week pharmacokinetic analysis
Protocol: (§5) The Tolerability and Effects of gildeuretinol acetate in Stargardt Disease (Clinical trial group 1, also known as TEASE-1) was a 24-month, multicenter, double-masked, placebo-controlled trial designed to evaluate the efficacy and safety of daily oral gildeuretinol acetate in slowing the growth of atrophic retinal lesions in Stargardt disease patients. The trial was conducted at multiple sites in the United States (NCT02402660).
(§6) Patients 12 years or older, clinically diagnosed with Stargardt disease, with at least one ABCA4 mutation, at least one eye presenting with well-demarcated areas of reduced fundus autofluorescence including retinal atrophic lesions, and with any visual acuity, were enrolled.
(§7) Patients were randomized to gildeuretinol acetate 14 mg capsules, gildeuretinol acetate 24 mg capsules, or placebo capsules, to be taken once daily for one year. After one year, 50% of randomly selected patients receiving placebo were crossed over in a 1:1 ratio to gildeuretinol acetate 14 mg capsules or gildeuretinol acetate 24 mg capsules for a second year.
Gildeuretinol acetate and placebo capsules were identical appearing capsules. Patients were advised to avoid vitamin A-containing supplements and liver-based products. Fruits and vegetables could be consumed without limitation. Trial visits occurred at 8 weeks and 6, 12, 18, and 24 months following screening and randomization.

[5] = tested on: atrophic retinal lesions in Stargardt disease patients; test: TEASE-1 growth rate of atrophic retinal lesions by fundus autofluorescence imaging; format: in vivo, human; design: relative slower growth rate of atrophic retinal lesions versus control / Percentage Slowing of Atrophic Retinal Lesion Growth Rate: concentration or dose not given beside the values
Protocol: as §5, §6, §7
Deidentified retinal images of patients not enrolled in the trial were included as a natural history cohort. This natural history cohort comprised patients diagnosed with Stargardt disease of any age, with two or more longitudinal fundus autofluorescence images taken at least four months apart over a maximum period of 2.5 years.
[…] retinal imaging comparing gildeuretinol acetate versus the untreated arm ([…]). Only well-delineated and homogeneous retinal atrophic lesions ≥0.2 mm^2 with a summed area ≥0.5 mm^2 were included in the primary analysis.
The primary endpoint analysis used a linear mixed-effect model (LMEM) with repeated measures, conferring a higher power to detect smaller effects. All observed data, including both eyes, were utilized. Treatment duration was computed as a continuous measure for each visit based on years since randomization. Adjustments for baseline retinal atrophy used the baseline atrophic retinal lesion size as a fixed effect in the LMEM. Additional fixed effects included treatment arm, treatment duration, and interaction between the treatment arm and treatment duration. Random effects included patient, eye, grader to adjust for correlation between eyes within a patient, graders' assessment of an eye, and observations of the same eye over time. A random effect slope term was added to the effect of treatment duration. Patients who crossed over to gildeuretinol acetate after year one were included in the untreated arm from baseline to year one, then in the gildeuretinol acetate arm from […] upon crossing over to gildeuretinol acetate. The full analysis set (FAS) comprised all randomized patients who received at least one dose of the study drug.
[…] All available data between 0 and 24 months was used to compute the slope of each segment. The primary efficacy endpoint was the slope of the second segment. No constraints were imposed on the Y-intercept. All growth rates were calculated on a per-year basis.
No imputations were made for missing data because the LMEM yields valid inferences under the assumption of a missing-at-random mechanism. The two-sided P-value of the primary efficacy endpoint was calculated using Kenward-Roger's method for handling denominator degrees of freedom and small samples. The goodness of fit of the linear mixed-effect model was provided as R-squared (R^2). Analyses were conducted in R (R Core Team, 2020). Prespecified, unadjusted sensitivity analyses of the primary efficacy endpoint included growth rates of untransformed areas of retinal atrophy and growth rates using a single-slope from baseline until the last available visit. Post-hoc unadjusted analyses were performed to evaluate the potential contribution of patient characteristics.

[6] = tested on: asymptomatic Stargardt disease patients; test: TEASE-3 fundus autofluorescence (FAF) imaging; format: in vivo, human; conditions: after two to four years of treatment, three patients
Protocol: as §1
To assess the safety and efficacy of gildeuretinol acetate in preventing vision loss in asymptomatic individuals, gildeuretinol acetate 14 mg capsules were administered to individuals showing early signs of retinal damage while maintaining approximately 20/20 vision and no subjective loss of vision. […]
as §4

## [2H]C([2H])([2H])C(/C=C/C=C(C)/C=C/C1=C(C)CCCC1(C)C)=C\COC(C)=O [gildeuretinol acetate]
[1]
  Patients experiencing event (%): Ear infection: 1 (10.0)
  Patients experiencing event (%): Gastroenteritis viral: 0
  Patients experiencing event (%): Herpes zoster: 0
  Patients experiencing event (%): Skin infection: 0
  Patients experiencing event (%): Upper respiratory tract infection: 2 (20.0)
  changes in visual acuity: No changes in visual acuity were observed
  discontinuation of treatment due to side effects: no patient discontinued treatment due to side effects
  serious adverse events associated with treatment: No serious adverse events
  severity of adverse events: mild or moderate
[2]; asymptomatic Stargardt disease patients, 14 mg daily, up to four years
  effect on vision loss: effectively prevented vision loss and further retinal damage; also recorded: completely prevented vision loss; also recorded: arrested loss of vision and retinal pathology
[2]; in vivo
  average BCVA improvement versus untreated siblings, lines of vision on the ETDRS eyechart: four
[2]; treated asymptomatic patients
  visual acuity (Snellen): ~ 20/20 and approximately 20/20
[2]; treated siblings, 14 mg daily, 2-4 years
  BCVA: 88±4 ETDRS letters
[2]; untreated siblings 66±10 ETDRS letters
  average BCVA improvement versus untreated age-matched siblings: 22±13 letters
[3]
  replacement of plasma vitamin A sustained throughout the treatment period: Over 80%
[3]; after the first two months, all three participants
  replacement of plasma vitamin A (retinol) with gildeuretinol: 80%
[4]; 14 or 24 mg daily, 24 months
  replacement of plasma vitamin A sustained throughout the treatment period: greater than 80%
[4]; after six months
  patients in whom over 80% of plasma vitamin A was replaced: 39 out of 40
[4]; daily doses approximately 14 to 24 mg, within a matter of weeks
  serum vitamin A replaced with gildeuretinol: more than 80%
[4]; in vivo
  total plasma vitamin A and retinoic acid (combined vitamin A and gildeuretinol-derived forms) versus placebo group: the same
[4]; 14 mg cohort
  percentage of gildeuretinol over total vitamin A (as retinol+gildeuretinol): 87%
[4]; 24 mg cohort
  percentage of gildeuretinol over total vitamin A (as retinol+gildeuretinol): 92%
[5]; 14 to 24 mg daily, slope 6 to 24 months, 34 patients
  growth rate of atrophic retinal lesions (square root area): 0.19 mm/year
[5]; P<0.001, R^2=0.9996
  relative slower growth rate of atrophic retinal lesions versus control: 21%
[5]; control 0.24 mm/year (placebo + natural history), 95% CI 0.03 to 0.07
  difference in growth rate of atrophic retinal lesions versus control: 0.05 mm/year
[5]; in vivo
  prespecified primary efficacy endpoint (mean growth rate of atrophic retinal lesions vs placebo and natural history): met its prespecified primary efficacy endpoint
[5]; symptomatic Stargardt disease patients, once daily up to 24 months
  effect on expansion of retinal atrophic lesions / retinal degeneration: slowed the expansion of retinal atrophic lesions; also recorded: slows retinal degeneration
[6]
  disease progression / changes by FAF imaging: none of the three treated Stargardt disease patients exhibited changes by FAF; also recorded: no observable disease progression; also recorded: no visible disease progression by fundus autofluorescence imaging occurred
